Laboratory results reported in PubChem BioAssay (NCI).
Values joined by “and” are separate entries in the source; they are usually repeats but may differ in a detail not shown here. Identical values can stand only once.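 48-hour exposure; five concentrations; linearly interpolated endpoints. GI50 = concentration required for 50% inhibition of growth. TGI is the concentration that stops growth completely.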

Key:
Test in all cases: inhibition of tumour cell growth, NCI panel, 48 h
[1] = tested on: HCC-2998 colon
[2] = tested on: LOX IMVI melanoma
[3] = tested on: MDA-MB-231 breast
[4] = tested on: PC-3 prostate
[5] = tested on: SF-268 CNS
[6] = tested on: SF-295 CNS
[7] = tested on: SF-539 CNS
[8] = tested on: SK-MEL-5 melanoma
[9] = tested on: SN12C renal
[10] = tested on: T-47D breast

## OC(COc1cccc2ccccc12)CN1CCN(c2ccccc2Cl)CC1 (stereo unspecified)
[1]
  GI50: 14.8 µM
  TGI: 29.3 µM
[2]
  GI50: 14.2 µM
  TGI: 30.2 µM
[3]
  GI50: 10.8 µM
  TGI: 25.5 µM
[4]
  GI50: 7.88 µM
  TGI: 23.2 µM
[5]
  GI50: 13.9 µM
  TGI: 29.9 µM
[6]
  GI50: 11.9 µM
  TGI: 26.9 µM
[7]
  GI50: 16.5 µM
  TGI: 32.8 µM
[8]
  GI50: 15.2 µM
  TGI: 28.9 µM
[9]
  GI50: 12.5 µM
  TGI: 25.4 µM
[10]
  GI50: 13.9 µM
  TGI: 29.6 µM

## O=C(CCl)Nc1cc(O)c2c(c1)C(=O)c1cccc(O)c1C2=O
[1]
  GI50: 1.75 µM
  TGI: 3.4 µM
[2]
  GI50: 0.166 µM
  TGI: 0.623 µM
[3]
  GI50: 1.91 µM
  TGI: 5.88 µM
[4]
  GI50: 1.57 µM
  TGI: 3.95 µM
[5]
  GI50: 1.69 µM
  TGI: 3.9 µM
[6]
  GI50: 2.28 µM
  TGI: 7.69 µM
[7]
  GI50: 2.29 µM
  TGI: 6.6 µM
[8]
  GI50: 0.549 µM
  TGI: 1.61 µM
[9]
  GI50: 0.68 µM
  TGI: 1.98 µM
[10]
  GI50: 1.19 µM
  TGI: 3.61 µM

## COc1ccc2c(c1)CC[C@@H]1[C@@H]2CC[C@]2(C)C=C(/C=C/C(=O)c3ccccc3)C[C@@H]12
[1]
  GI50: 16.2 µM
  TGI: 31.2 µM
[2]
  GI50: 14.9 µM
  TGI: 29.9 µM
[3]
  GI50: 17.2 µM
  TGI: 32.1 µM
[4]
  GI50: 15.4 µM
  TGI: 30.5 µM
[5]
  GI50: 18.2 µM
  TGI: 36.6 µM
[6]
  GI50: 17.5 µM
  TGI: 34 µM
[7]
  GI50: 17.4 µM
  TGI: 32.4 µM
[8]
  GI50: 14 µM
  TGI: 27.2 µM
[9]
  GI50: 18.5 µM
  TGI: 33.4 µM
[10]
  GI50: 12 µM
  TGI: 30.1 µM

## O=C1c2ccn(CCCCN3CCC(O)CC3)c2C(=O)c2c1c(O)c1ccccc1c2O
[1]
  GI50: 20.6 µM
  TGI: > 59.5 µM
[2]
  GI50: 8.04 µM
[3]
  GI50: 13.3 µM
  TGI: 38.3 µM
[4]
  GI50: 1.35 µM
  TGI: 3.16 µM
[5]
  GI50: 17.8 µM
  TGI: > 74.3 µM
[6]
  GI50: 3.25 µM
  TGI: 9.69 µM
[7]
  GI50: 43.8 µM
  TGI: > 100 µM
[8]
  GI50: 16.6 µM
  TGI: 96.2 µM
[9]
  GI50: 15.2 µM
  TGI: 34.9 µM
[10]
  GI50: > 46 µM
  TGI: > 67.6 µM

## Cc1ccc2c(c1)C(=O)c1c-2n(CCCN=[N+]=[N-])c(=O)c2cc([N+](=O)[O-])ccc12
[1]
  GI50: > 100 µM
  TGI: > 100 µM
[2]
  GI50: 33.2 µM
  TGI: > 100 µM
[3]
  GI50: 46.9 µM
  TGI: > 100 µM
[4]
  GI50: 33.4 µM
  TGI: > 100 µM
[5]
  GI50: 5.59 µM
  TGI: > 100 µM
[6]
  GI50: > 100 µM
  TGI: > 100 µM
[7]
  GI50: > 100 µM
  TGI: > 100 µM
[8]
  GI50: 97.6 µM
  TGI: > 100 µM
[9]
  GI50: 59.4 µM
  TGI: > 100 µM
[10]
  GI50: 20.7 µM
  TGI: 93.6 µM

## Oc1c(CN2CCOCC2)cc(COCc2ccccc2)c2cccnc12
[1]
  GI50: 3.28 µM
  TGI: > 100 µM
[2]
  GI50: 1.19 µM
  TGI: 10.4 µM
[3]
  GI50: 6.48 µM
  TGI: > 100 µM
[4]
  GI50: 7.34 µM
  TGI: > 100 µM
[5]
  GI50: 1.95 µM
  TGI: > 100 µM
[6]
  GI50: 3.68 µM
  TGI: 30.6 µM
[7]
  GI50: 2.24 µM
  TGI: 11.5 µM
[8]
  GI50: 2.03 µM
  TGI: 5.43 µM
[9]
  GI50: 5.29 µM
  TGI: > 100 µM
[10]
  GI50: 2.63 µM
  TGI: > 100 µM

## CC(=O)N1CCN(CCOc2ccc(C3CCN(C4=Nn5c(nnc5C(F)(F)F)CC4)CC3)cc2)CC1
[1]
  GI50: 21.6 µM
  TGI: > 100 µM
[2]
  GI50: 11.4 µM
  TGI: > 100 µM
[3]
  GI50: 7.83 µM
  TGI: > 100 µM
[4]
  GI50: 7.87 µM
  TGI: > 100 µM
[5]
  GI50: 77.9 µM
  TGI: > 100 µM
[6]
  GI50: 12.2 µM
  TGI: > 85.9 µM
[7]
  GI50: 22.5 µM
  TGI: > 100 µM
[8]
  GI50: 6.58 µM
  TGI: 30.8 µM
[9]
  GI50: 14.5 µM
  TGI: > 100 µM
[10]
  GI50: 5.21 µM
  TGI: > 100 µM

## O=C(c1ccccc1)C1C(C(=O)c2ccccc2)C(c2ccccc2)N(c2ccccc2)C1c1ccccc1 (stereo unspecified)
[1]
  TGI: > 100 µM
[2]
  TGI: > 100 µM
[3]
  TGI: > 100 µM
[4]
  TGI: > 100 µM
[5]
  TGI: > 100 µM
[6]
  TGI: > 100 µM
[7]
  TGI: > 100 µM
[8]
  TGI: > 100 µM
[9]
  TGI: > 100 µM
[10]
  TGI: > 100 µM

## CCCCCc1c(C)[nH]c(/C=C2\N=C(c3ccc[nH]3)C=C2OCc2ccccc2)c1C
[1]
  GI50: 0.0419 µM and 0.038 µM
  TGI: 1.7 µM and 1.24 µM
[2]
  GI50: 0.0195 µM and 0.0117 µM
  TGI: 0.0458 µM and 0.0377 µM
[3]
  GI50: 0.0244 µM
  TGI: 0.257 µM and 0.0768 µM
[4]
  GI50: 0.0413 µM and 0.0183 µM
  TGI: 2.06 µM and 1.17 µM
[5]
  GI50: 0.0488 µM and 0.0385 µM
  TGI: 1.6 µM and 1.33 µM
[6]
  GI50: 0.0689 µM and 0.0431 µM
  TGI: 0.337 µM and 0.292 µM
[7]
  GI50: 0.0668 µM and 0.0492 µM
  TGI: 1.08 µM and 0.263 µM
[8]
  GI50: 0.0358 µM and 0.0186 µM
  TGI: 0.138 µM and 0.0471 µM
[9]
  GI50: 0.0703 µM and 0.0458 µM
  TGI: 1.43 µM and 0.268 µM
[10]
  GI50: 0.0445 µM and 0.0311 µM
  TGI: 0.741 µM and 1.01 µM

## COC(=O)[C@]12CC[C@@H](C)[C@H](C)[C@@H]1C1=CC[C@@H]3[C@@]4(C)CC(=O)[C@H](OC(=O)c5ccco5)[C@@]5(C)COC(=C45)C[C@@]3(C)[C@]1(C)CC2
[1]
  TGI: > 100 µM
[2]
  GI50: 0.427 µM
  TGI: > 100 µM
[3]
  GI50: 5.11 µM
  TGI: > 100 µM
[4]
  GI50: 0.592 µM
  TGI: > 100 µM
[5]
  GI50: 4.86 µM
  TGI: > 100 µM
[6]
  GI50: 28.3 µM
  TGI: > 100 µM
[7]
  GI50: 7.56 µM
  TGI: > 100 µM
[8]
  GI50: 0.414 µM
  TGI: 2.54 µM
[10]
  GI50: 0.667 µM
  TGI: > 100 µM
